Columns and labels:
mouse serum albumin = target: T1, mouse serum albumin (Mus musculus, UniProt P07724); format: in vitro ADME
T1 construct: tissue Rockland Immunochemicals Inc., USA Lot: 32321; host or cells: mouse blood plasma
Procedure: (§1) The albumin-binding properties of the radiopeptides in mouse and human blood plasma were determined using an ultrafiltration assay with Amicon centrifugal filters (cut-off of 10 kDa; Merck Millipore) as previously reported (Supplementary Material). A fixed amount of the respective radiopeptide (~ 300 kBq, 15 µL, 6 pmol) was added to a defined volume (150 µL) of mouse and human blood plasma dilutions to obtain [mouse serum albumin]-to-[radiopeptide] molar concentration ratios of 0.01‒12,500 and [human serum albumin]-to-[radiopeptide] molar concentration ratios of 0.01‒20,000. The data were analyzed using a semi-logarithmic Hill plot with the maximum binding set as 100% using GraphPad Prism software (version 10.1.1). The half-maximum binding (B50 values) of each radiopeptide was expressed as relative values using the inverse ratios with the value of [^177Lu]Lu-uPAR-11 set as 1.0. […] The samples were incubated at 37 °C for 30 min. Ice-cold PBS (150 µL, pH 7.4) was added before loading the blood plasma samples on Amicon centrifugal filters (cut-off of 10 kDa; Merck Millipore) followed by centrifugation (14000 rcf, 4 °C, 30 min) to allow the separation of the plasma protein-bound from the unbound (free) fractions of each sample. The inserts of the filter devices were inverted and centrifuged at 200 rcf for 3 min to recover the protein-bound radiopeptide. The activity of the protein-bound fraction was measured using a γ-counter (Wallac Wizard 1480, PerkinElmer). The activity in the filtrate and filter unit was counted in the γ-counter and the counts were combined, assuming that the fraction retained in the filter membrane was not bound to proteins. The protein-bound fraction was expressed as percentage of the whole activity (i.e. plasma protein-bound activity, activity measured in the filtrate and activity measured in the filter (set as 100%)). The data were analyzed using a semi-logarithmic plot assuming a maximum binding of 100%. The Hill equation was fitted to the data points, and the half-maximum binding (B50) was determined based on the obtained binding curves using GraphPad Prism software (version 10.1.1). To quantitatively express and compare the albumin-binding properties of the radiopeptides, the relative albumin-binding affinity was expressed as the inverse half-maximal-binding (B50) of the respective radioligand to that of [^177Lu]Lu-uPAR-11, which was set as 1.0. The results were presented as the value obtained from the average curve from 3 independent experiments.

human uPAR = target: T2, human uPAR (Homo sapiens, UniProt Q03405); test: uPAR-binding affinity, saturation binding on HEK-uPAR cells; details: 4 °C
T2 construct: host or cells: HEK cells transfected with human uPAR (HEK-uPAR)
Procedure: To determine the uPAR-binding affinity of the radiopeptides, saturation binding experiments were performed according to a previously published procedure using HEK-uPAR cells in 48-well plates (Supplementary Material). The assay was performed on ice (at 4 °C) to prevent target internalization upon binding of the radiopeptides. The cells were incubated with the radiopeptides in the presence or absence of excess AE105 (40 µM) together with the respective radiopeptides at concentrations ranging between 1 nM and 1600 nM. After removal of the supernatant, the HEK-uPAR cells were rinsed and lysed to be measured using a γ-counter (Wallac Wizard 1480, PerkinElmer). The KD values were determined by plotting the specific binding (values of cell samples incubated without AE105 minus the respective values of samples incubated with AE105) against the molar concentration of the added peptide. A nonlinear regression analysis was performed using GraphPad Prism software (version 10.1.1). The results are reported as average of KD values ± SD of n = 3 independent experiments. Methods: HEK-uPAR cells were seeded in poly-D-lysine-coated 48-well plates (0.25 × 10^6 in 0.5 mL per well) using DMEM culture medium with supplements. The cells were incubated at 37 °C and 5% CO2 overnight to allow adhesion and growth. The well plates with HEK-uPAR cells were placed on ice for the entire experiment to prevent internalization of the radiopeptides. After removal of the medium, the HEK-uPAR cells were rinsed with cold PBS (0.5 mL, pH 7.4) followed by the addition of DMEM culture medium without supplements (450 µL/well) in the presence or absence of AE105 (final concentration 40 µM) as a receptor blocking agent. The cells were incubated for 30 min on ice. The respective radiopeptides (5 MBq/nmol) were diluted in PBS at peptide concentrations 10‒16000 nM. A volume of 50 µL from each dilution was added to each well to obtain peptide concentrations in the range of […]. The assay was performed at 4 °C on ice, to prevent internalization of the radiopeptides. The radiopeptides were incubated on cells for 1 h on a shaker before rinsing twice with PBS (0.5 mL, pH 7.4). Increasing ligand concentrations were used to approximate saturation of the binding sites (Bmax value) at equilibrium. Ligand depletion effects of the ligand concentration in the supernatant of the cell samples were not taken into account. The cells were lysed using an aqueous NaOH solution (1 M, 600 µL) and the lysates were transferred to radioimmunoassay tubes for counting the activity in a γ-counter (Wallac Wizard 1480, PerkinElmer). The KD values were determined by plotting the specific binding (total binding minus unspecific binding) against the molar concentration of the added radiopeptide using GraphPad Prism software (version 10.1.1). The results were then expressed as average ± SD of n = 3 independent experiments.

[1] = test system: HEK-uPAR xenograft-bearing mice; details: mouse, in vivo
Procedure: (§2) HEK-uPAR xenografted mice were injected with the respective radiopeptide (5 MBq, 0.5 nmol/mouse, 100 µL 0.9% NaCl containing 0.05% BSA) and sacrificed at 4 h and 24 h after injection. […] The tissues and organs of interest were collected, weighed and counted for activity using a γ-counter (Wallac Wizard 1480, PerkinElmer). […] The results were presented as the average ± SD of n = 3 mice. The time-activity curves were determined for the uptake of [^177Lu]Lu-DOTA-AE105 and [^177Lu]Lu-uPAR-11 in the blood, HEK-uPAR xenografts, kidneys and liver based on non-decay corrected biodistribution data. For the blood, the initial uptake (t = 0) was set as 50% IA/g assuming a blood volume of 2 mL for CD1 nude mice. The initial uptake value (t = 0) for all other organs and tissues was set as 0% IA/g. […] The area under the curves over 48 h after injection (AUC0h→48 h) was calculated using GraphPad Prism software (version 10.1.1). Statistical analyses were performed by applying a one-way ANOVA test with a Dunnet’s multiple comparison post‐test to compare the data of the new radiopeptides with those of [^177Lu]Lu-DOTA-AE105 and a Tukey’s multiple comparisons post‐test to compare the novel radiopeptides among them. A p-value of < 0.05 was considered a statistically significant difference using GraphPad Prism software (version 10.1.1).

in vivo = details: CD1 nude, mouse, 0.5 nmol/mouse, total radioactivity
Procedure: as §2

human serum albumin = human serum albumin (Homo sapiens, UniProt P02768); format: in vitro ADME; parameters: tissue Stiftung Blutspende SRK Aargau-Solothurn, Switzerland; host or cells: human blood plasma
Procedure: as §1

T1 sequence (P07724 25-608): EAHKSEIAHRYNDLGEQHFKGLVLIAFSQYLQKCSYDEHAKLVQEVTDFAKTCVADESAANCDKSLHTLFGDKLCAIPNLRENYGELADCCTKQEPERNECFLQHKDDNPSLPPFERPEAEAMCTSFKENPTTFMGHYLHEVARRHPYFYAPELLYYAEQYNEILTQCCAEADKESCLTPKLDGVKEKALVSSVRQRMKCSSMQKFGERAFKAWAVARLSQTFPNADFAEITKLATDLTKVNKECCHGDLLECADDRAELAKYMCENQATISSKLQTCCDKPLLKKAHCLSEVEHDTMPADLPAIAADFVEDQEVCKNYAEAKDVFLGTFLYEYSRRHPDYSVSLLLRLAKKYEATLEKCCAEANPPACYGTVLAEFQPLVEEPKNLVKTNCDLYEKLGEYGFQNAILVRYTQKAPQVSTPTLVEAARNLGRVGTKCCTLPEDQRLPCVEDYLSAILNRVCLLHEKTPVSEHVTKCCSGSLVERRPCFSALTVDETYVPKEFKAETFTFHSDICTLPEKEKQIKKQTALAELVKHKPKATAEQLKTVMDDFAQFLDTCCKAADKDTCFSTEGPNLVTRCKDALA
human serum albumin, sequence (P02768 25-609): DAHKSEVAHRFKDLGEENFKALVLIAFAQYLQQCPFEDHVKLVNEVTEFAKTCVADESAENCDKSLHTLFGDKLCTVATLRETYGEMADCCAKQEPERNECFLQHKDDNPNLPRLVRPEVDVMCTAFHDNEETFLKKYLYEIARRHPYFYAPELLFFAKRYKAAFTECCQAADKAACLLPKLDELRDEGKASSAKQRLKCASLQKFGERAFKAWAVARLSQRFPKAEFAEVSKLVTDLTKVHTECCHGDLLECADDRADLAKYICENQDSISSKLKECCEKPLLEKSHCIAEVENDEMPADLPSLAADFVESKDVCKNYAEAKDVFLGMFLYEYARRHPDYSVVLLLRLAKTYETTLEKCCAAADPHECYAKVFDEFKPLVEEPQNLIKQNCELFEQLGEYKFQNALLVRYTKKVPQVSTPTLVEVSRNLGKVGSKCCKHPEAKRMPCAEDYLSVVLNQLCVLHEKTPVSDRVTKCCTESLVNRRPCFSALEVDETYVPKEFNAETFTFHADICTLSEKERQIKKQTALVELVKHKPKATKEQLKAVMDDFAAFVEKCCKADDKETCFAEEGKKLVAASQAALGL
T2 sequence (Q03405 23-335): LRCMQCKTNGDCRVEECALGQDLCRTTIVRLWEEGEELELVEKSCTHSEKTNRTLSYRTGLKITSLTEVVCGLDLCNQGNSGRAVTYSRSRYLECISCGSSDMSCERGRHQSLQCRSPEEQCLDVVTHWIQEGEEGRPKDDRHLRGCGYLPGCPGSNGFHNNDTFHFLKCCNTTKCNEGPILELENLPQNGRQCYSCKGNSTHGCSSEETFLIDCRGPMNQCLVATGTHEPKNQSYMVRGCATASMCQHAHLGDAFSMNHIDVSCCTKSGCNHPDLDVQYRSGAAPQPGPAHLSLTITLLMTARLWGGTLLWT

| Structure (SMILES) | Albumin-binding properties, relative values (inverse B50 ratio) (mouse serum albumin) | Kd (human uPAR) | Xgrft-to-liver ratio [1] | tissue uptake at 4 h (in vivo; Blood uptake) | tissue uptake at 24 h (in vivo; Blood uptake) | tissue uptake at 4 h (in vivo; Bone uptake) | tissue uptake at 24 h (in vivo; Bone uptake) | tissue uptake at 4 h (in vivo; Brain uptake) | tissue uptake at 24 h (in vivo; Brain uptake) | tissue uptake at 4 h (in vivo; HEK-uPAR xenograft uptake) | tissue uptake at 24 h (in vivo; HEK-uPAR xenograft uptake) | tissue uptake at 4 h (in vivo; Heart uptake) | tissue uptake at 24 h (in vivo; Heart uptake) | tissue uptake at 4 h (in vivo; Intestines uptake) | tissue uptake at 24 h (in vivo; Intestines uptake) | tissue uptake at 4 h (in vivo; Kidneys uptake) | tissue uptake at 24 h (in vivo; Kidneys uptake) | tissue uptake at 4 h (in vivo; Liver uptake) | tissue uptake at 24 h (in vivo; Liver uptake) | tissue uptake at 4 h (in vivo; Lung uptake) | other results |
| --- | --- | --- | --- | --- | --- | --- | --- | --- | --- | --- | --- | --- | --- | --- | --- | --- | --- | --- | --- | --- | --- |
| Cc1ccc(CCCC(=O)NCCOCCOCCOCCC(=O)NCCCC[C@H](NC(=O)CN2CCN(CC(=O)O)CCN(CC(=O)O)CCN(CC(=O)O)CC2)C(=O)N[C@@H](CC(=O)O)C(=O)N[C@@H](CC2CCCCC2)C(=O)N[C@@H](Cc2ccccc2)C(=O)N[C@H](CO)C(=O)N[C@H](CCCNC(=N)N)C(=O)N[C@@H](Cc2ccc(O)cc2)C(=O)N[C@@H](CC(C)C)C(=O)N[C@@H](Cc2c[nH]c3ccccc23)C(=O)N[C@@H](CO)C(N)=O)cc1 [[^177Lu]Lu-uPAR-15, metal not drawn] | 0.77 | 42 ± 3 nM | 6.5 ± 1.7 | 4.5 ± 0.5 %ID/g | 0.04 ± 0.01 %ID/g | 0.66 ± 0.05 %ID/g | 0.12 ± 0.03 %ID/g | 0.1 ± 0.02 %ID/g | < 0.03 %ID/g | 12 ± 1 %ID/g | 3.1 ± 0.8 %ID/g | 1.6 ± 0.2 %ID/g | 0.13 ± 0.01 %ID/g | 0.74 ± 0.15 %ID/g | 0.16 ± 0.03 %ID/g | 3.9 ± 0.6 %ID/g | 2 ± 0.3 %ID/g | 1.6 ± 0.2 %ID/g | 0.5 ± 0.11 %ID/g | 2.6 ± 0.4 %ID/g | Albumin-binding affinity relative to [177Lu]Lu-uPAR-11 (mouse serum albumin): 0.50‒0.77; tissue uptake at 24 h (in vivo; Lung uptake): 0.27 ± 0.06 %ID/g; tissue uptake at 4 h (in vivo; Muscle uptake): 0.41 ± 0.1 %ID/g; tissue uptake at 24 h (in vivo; Muscle uptake): 0.05 ± 0.01 %ID/g; tissue uptake at 4 h (in vivo; Pancreas uptake): 0.61 ± 0.1 %ID/g; tissue uptake at 24 h (in vivo; Pancreas uptake): 0.09 ± 0.02 %ID/g; tissue uptake at 4 h (in vivo; Salivary glands uptake): 1.2 ± 0.2 %ID/g; tissue uptake at 24 h (in vivo; Salivary glands uptake): 0.21 ± 0.03 %ID/g; tissue uptake at 4 h (in vivo; Spleen uptake): 0.93 ± 0.09 %ID/g; tissue uptake at 24 h (in vivo; Spleen uptake): 0.51 ± 0.23 %ID/g; tissue uptake at 4 h (in vivo; Stomach uptake): 0.67 ± 0.11 %ID/g; tissue uptake at 24 h (in vivo; Stomach uptake): 0.12 ± 0.03 %ID/g; Inverse relative albumin-binding affinity (human serum albumin): 0.77 |
| Cc1ccc(CCCC(=O)NCCOCCOCCOCCOCCOCCC(=O)NCCCC[C@H](NC(=O)CN2CCN(CC(=O)O)CCN(CC(=O)O)CCN(CC(=O)O)CC2)C(=O)N[C@@H](CC(=O)O)C(=O)N[C@@H](CC2CCCCC2)C(=O)N[C@@H](Cc2ccccc2)C(=O)N[C@H](CO)C(=O)N[C@H](CCCNC(=N)N)C(=O)N[C@@H](Cc2ccc(O)cc2)C(=O)N[C@@H](CC(C)C)C(=O)N[C@@H](Cc2c[nH]c3ccccc23)C(=O)N[C@@H](CO)C(N)=O)cc1 [[^177Lu]Lu-uPAR-18, metal not drawn] | 0.66 | 33 ± 4 nM | 20 ± 3 | 3.4 ± 0.7 %ID/g | 0.05 %ID/g | 0.5 ± 0.04 %ID/g | 0.19 ± 0.01 %ID/g | 0.08 ± 0.01 %ID/g | < 0.03 %ID/g | 14 ± 1 %ID/g | 7.3 ± 0.4 %ID/g | 1.3 ± 0.2 %ID/g | 0.12 ± 0.01 %ID/g | 0.58 ± 0.14 %ID/g | 0.17 ± 0.02 %ID/g | 3.7 ± 0.4 %ID/g | 2.1 ± 0.2 %ID/g | 1.2 ± 0.1 %ID/g | 0.38 ± 0.06 %ID/g | 2.1 ± 0.4 %ID/g | tissue uptake at 24 h (in vivo; Lung uptake): 0.29 ± 0.02 %ID/g; tissue uptake at 4 h (in vivo; Muscle uptake): 0.37 ± 0.03 %ID/g; tissue uptake at 24 h (in vivo; Muscle uptake): 0.06 ± 0.01 %ID/g; tissue uptake at 4 h (in vivo; Pancreas uptake): 0.63 ± 0.27 %ID/g; tissue uptake at 24 h (in vivo; Pancreas uptake): 0.09 ± 0.01 %ID/g; tissue uptake at 4 h (in vivo; Salivary glands uptake): 0.87 ± 0.2 %ID/g; tissue uptake at 24 h (in vivo; Salivary glands uptake): 0.23 ± 0.03 %ID/g; tissue uptake at 4 h (in vivo; Spleen uptake): 0.77 ± 0.01 %ID/g; tissue uptake at 24 h (in vivo; Spleen uptake): 0.42 ± 0.04 %ID/g; tissue uptake at 4 h (in vivo; Stomach uptake): 0.54 ± 0.12 %ID/g; tissue uptake at 24 h (in vivo; Stomach uptake): 0.11 ± 0.02 %ID/g; Inverse relative albumin-binding affinity (human serum albumin): 1.05 |

Reference: paper PMC12920294, “Optimizing uPAR-targeting radiopeptides for improved tissue distribution: progress towards radionuclide therapy” (European Journal of Nuclear Medicine and Molecular Imaging, 2025)
